Source: PubChem BioAssay AID330 (DTP/NCI, 2004)
Values joined by “and” are separate entries in the source; they are usually repeats but may differ in a detail not shown here. Identical values can stand only once. Inconclusive results and toxic doses are left out.

Test system: P388 leukemia ip, CD2F1 mice, survival T/C
Experiment: NCI In Vivo Anticancer Drug Screen. Data for tumor model P388 Leukemia (intraperitoneal) in CD2F1 (CDF1) mice
Settings: endpoint: median survival time, higher = longer survival
Procedure, shortened: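 Mice carrying the transplanted tumor received test compound or vehicle. Survival was recorded in each group, and the value is the treated-group measurement divided by that of the vehicle-treated control group.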

With `O=C1c2ccccc2C(=O)c2c(NCCNCCO)ccc(NCCNCCO)c21` the T/C (dose: 0.1 mg/kg/injection, schedule: Q04DX003 (ip), vehicle: saline) was 108 % of control, the T/C (dose: 0.3 mg/kg/injection, schedule: Q04DX003 (ip), vehicle: saline) was 116 % of control and the T/C (dose: 0.5 mg/kg/injection, schedule: Q01DX009 (ip), vehicle: water) was 165 % of control. The T/C (dose: 0.5 mg/kg/injection, schedule: Q04DX003 (ip), vehicle: saline) was 118 % of control, the T/C (dose: 1.0 mg/kg/injection, schedule: Q01DX009 (ip), vehicle: water) was 167 % of control and the T/C (dose: 1.0 mg/kg/injection, schedule: Q04DX003 (ip), vehicle: saline) was 110 % of control and 115 % of control. The T/C (dose: 1.25 mg/kg/injection, schedule: Q01DX009 (ip), vehicle: saline) was 192 % of control, the T/C (dose: 1.25 mg/kg/injection, schedule: Q01DX009 (ip), vehicle: water) was 155 % of control and the T/C (dose: 2.0 mg/kg/injection, schedule: Q01DX009 (ip), vehicle: saline) was 199 % of control. For the same compound, the T/C (dose: 2.0 mg/kg/injection, schedule: Q04DX003 (ip), vehicle: saline) was 117 % of control, the T/C (dose: 3.13 mg/kg/injection, schedule: Q01DX005 (ip), vehicle: saline) was 169 % of control and the T/C (dose: 3.13 mg/kg/injection, schedule: Q01DX005 (iv), vehicle: saline) was 114 % of control. The T/C (dose: 3.89 mg/kg/injection, schedule: Q01DX009 (ip), vehicle: saline) was 200 % of control and 261 % of control, the T/C (dose: 3.89 mg/kg/injection, schedule: Q01DX009 (sc), vehicle: saline) was 118 % of control and the T/C (dose: 4.0 mg/kg/injection, schedule: Q01DX009 (ip), vehicle: saline) was 233 % of control. The T/C (dose: 4.0 mg/kg/injection, schedule: Q04DX003 (ip), vehicle: saline) was 117 % of control, the T/C (dose: 5.0 mg/kg/injection, schedule: Q01DX005 (ip), vehicle: saline) was 223 % of control and the T/C (dose: 5.0 mg/kg/injection, schedule: Q01DX005 (iv), vehicle: saline) was 116 % of control. The T/C (dose: 6.22 mg/kg/injection, schedule: Q04DX003 (iv), vehicle: saline) was 109 % of control and 118 % of control, the T/C (dose: 6.25 mg/kg/injection, schedule: Q01DX005 (ip), vehicle: saline) was 205 % of control and the T/C (dose: 6.25 mg/kg/injection, schedule: Q01DX009 (ip), vehicle: water) was 156 % of control. The T/C (dose: 6.48 mg/kg/injection, schedule: Q01DX009 (ip), vehicle: saline) was 207 % of control and 245 % of control, the T/C (dose: 7.78 mg/kg/injection, schedule: Q01DX001 (iv), vehicle: saline) was 107 % of control and 111 % of control and the T/C (dose: 7.78 mg/kg/injection, schedule: Q01DX005 (ip), vehicle: saline) was 261 % of control. For the same compound, the T/C (dose: 7.78 mg/kg/injection, schedule: Q04DX003 (ip), vehicle: saline) was 181 % of control, the T/C (dose: 8.0 mg/kg/injection, schedule: Q04DX003 (ip), vehicle: Klucel (hydroxypropylcellulose) (HPC)) was 172 % of control and the T/C (dose: 8.0 mg/kg/injection, schedule: Q04DX003 (ip), vehicle: saline) was 153 % of control. For the same compound, the T/C (dose: 10.0 mg/kg/injection, schedule: Q01DX001 (iv), vehicle: saline) was 107 % of control, the T/C (dose: 10.0 mg/kg/injection, schedule: Q01DX005 (ip), vehicle: saline) was 258 % of control and the T/C (dose: 10.0 mg/kg/injection, schedule: Q04DX003 (ip), vehicle: saline) was 178 % of control. The T/C (dose: 10.0 mg/kg/injection, schedule: Q04DX003 (iv), vehicle: saline) was 108 % of control, the T/C (dose: 10.4 mg/kg/injection, schedule: Q04DX003 (ip), vehicle: saline) was 196 % of control and 208 % of control and the T/C (dose: 10.4 mg/kg/injection, schedule: Q04DX003 (iv), vehicle: saline) was 117 % of control. The T/C (dose: 10.8 mg/kg/injection, schedule: Q01DX009 (ip), vehicle: saline) was 209 % of control, the T/C (dose: 10.8 mg/kg/injection, schedule: Q01DX009 (sc), vehicle: saline) was 178 % of control and the T/C (dose: 12.5 mg/kg/injection, schedule: Q01DX005 (ip), vehicle: saline) was 241 % of control. For the same compound, the T/C (dose: 12.5 mg/kg/injection, schedule: Q01DX009 (ip), vehicle: water) was 187 % of control, the T/C (dose: 12.5 mg/kg/injection, schedule: Q04DX003 (ip), vehicle: saline) was 176 % of control and the T/C (dose: 13.0 mg/kg/injection, schedule: Q01DX001 (iv), vehicle: saline) was 111 % of control and 112 % of control. The T/C (dose: 13.0 mg/kg/injection, schedule: Q01DX005 (iv), vehicle: saline) was 161 % of control, the T/C (dose: 13.0 mg/kg/injection, schedule: Q04DX003 (ip), vehicle: saline) was 156 % of control and 203 % of control and the T/C (dose: 13.8 mg/kg/injection, schedule: Q04DX003 (ip), vehicle: saline) was 209 % of control. The T/C (dose: 15.0 mg/kg/injection, schedule: Q01DX009 (ip), vehicle: saline) was 113 % of control, the T/C (dose: 16.0 mg/kg/injection, schedule: Q01DX009 (ip), vehicle: saline) was 177 % of control and the T/C (dose: 16.0 mg/kg/injection, schedule: Q04DX003 (ip), vehicle: Klucel (hydroxypropylcellulose) (HPC)) was 175 % of control. For the same compound, the T/C (dose: 17.3 mg/kg/injection, schedule: Q04DX003 (ip), vehicle: saline) was 216 % of control and 241 % of control, the T/C (dose: 18.0 mg/kg/injection, schedule: Q01DX009 (sc), vehicle: saline) was 205 % of control and the T/C (dose: 20.0 mg/kg/injection, schedule: Q01DX001 (ip), vehicle: saline) was 163 % of control. For the same compound, the T/C (dose: 20.0 mg/kg/injection, schedule: Q01DX001 (iv), vehicle: saline) was 115 % of control, the T/C (dose: 20.0 mg/kg/injection, schedule: Q01DX005 (iv), vehicle: saline) was 173 % of control and the T/C (dose: 21.6 mg/kg/injection, schedule: Q01DX001 (ip), vehicle: saline) was 178 % of control and 213 % of control. The T/C (dose: 21.6 mg/kg/injection, schedule: Q01DX001 (iv), vehicle: saline) was 117 % of control, the T/C (dose: 24.0 mg/kg/injection, schedule: Q04DX003 (ip), vehicle: saline) was 116 % of control and the T/C (dose: 25.0 mg/kg/injection, schedule: Q01DX005 (iv), vehicle: saline) was 178 % of control. The T/C (dose: 25.0 mg/kg/injection, schedule: Q01DX009 (ip), vehicle: water) was 122 % of control, the T/C (dose: 25.0 mg/kg/injection, schedule: Q04DX003 (ip), vehicle: Klucel (hydroxypropylcellulose) (HPC)) was 157 % of control and the T/C (dose: 25.0 mg/kg/injection, schedule: Q04DX003 (ip), vehicle: saline) was 246 % of control. For the same compound, the T/C (dose: 28.8 mg/kg/injection, schedule: Q04DX003 (ip), vehicle: saline) was 252 % of control, the T/C (dose: 30.0 mg/kg/injection, schedule: Q01DX009 (sc), vehicle: saline) was 227 % of control and the T/C (dose: 32.0 mg/kg/injection, schedule: Q04DX003 (ip), vehicle: Klucel (hydroxypropylcellulose) (HPC)) was 114 % of control. The T/C (dose: 32.0 mg/kg/injection, schedule: Q04DX003 (ip), vehicle: saline) was 166 % of control, the T/C (dose: 36.0 mg/kg/injection, schedule: Q01DX001 (ip), vehicle: saline) was 209 % of control and 233 % of control and the T/C (dose: 36.0 mg/kg/injection, schedule: Q01DX005 (ip), vehicle: saline) was 121 % of control. For the same compound, the T/C (dose: 40.0 mg/kg/injection, schedule: Q01DX001 (ip), vehicle: saline) was 197 % of control, the T/C (dose: 40.0 mg/kg/injection, schedule: Q01DX005 (ip), vehicle: saline) was 250 % of control and the T/C (dose: 40.0 mg/kg/injection, schedule: Q04DX003 (ip), vehicle: saline) was 214 % of control. For the same compound, the T/C (dose: 50.0 mg/kg/injection, schedule: Q04DX003 (ip), vehicle: Klucel (hydroxypropylcellulose) (HPC)) was 150 % of control and 174 % of control, the T/C (dose: 50.0 mg/kg/injection, schedule: Q04DX003 (ip), vehicle: saline) was 192 % of control and the T/C (dose: 60.0 mg/kg/injection, schedule: Q01DX001 (ip), vehicle: saline) was 218 % of control and 224 % of control. For the same compound, the T/C (dose: 64.0 mg/kg/injection, schedule: Q04DX003 (ip), vehicle: Klucel (hydroxypropylcellulose) (HPC)) was 163 % of control, the T/C (dose: 64.0 mg/kg/injection, schedule: Q04DX003 (ip), vehicle: saline) was 166 % of control and 201 % of control and the T/C (dose: 80.0 mg/kg/injection, schedule: Q01DX001 (ip), vehicle: saline) was 241 % of control. The T/C (dose: 96.0 mg/kg/injection, schedule: Q04DX003 (ip), vehicle: saline) was 152 % of control and 153 % of control, the T/C (dose: 100.0 mg/kg/injection, schedule: Q01DX001 (ip), vehicle: saline) was 210 % of control and the T/C (dose: 100.0 mg/kg/injection, schedule: Q04DX003 (ip), vehicle: Klucel (hydroxypropylcellulose) (HPC)) was 176 % of control and 178 % of control. For the same compound, the T/C (dose: 128.0 mg/kg/injection, schedule: Q04DX003 (ip), vehicle: saline) was 173 % of control and 186 % of control, the T/C (dose: 167.0 mg/kg/injection, schedule: Q01DX001 (ip), vehicle: saline) was 216 % of control and the T/C (dose: 192.0 mg/kg/injection, schedule: Q04DX003 (ip), vehicle: saline) was 150 % of control. The T/C (dose: 200.0 mg/kg/injection, schedule: Q04DX003 (ip), vehicle: Klucel (hydroxypropylcellulose) (HPC)) was 157 % of control.
